Experimental data from patent US10022387B2, “Aza-heteroaryl compounds as PI3K-gamma inhibitors” (Incyte Corporation, priority 2015, dated 2018).

biological target: PI3Kδ (p110δ/p85α) Recombinant Human Protein (Homo sapiens (Human), UniProt O00329); assay: PI3Kδ Scintillation Proximity Assay; assay type: biochemical; conditions: 20 μM PIP2, 2 μM ATP, 3.4 nM PI3Kδ, 120 min; read-out: PI3K-delta SPA IC50
Text: [γ-^33P]ATP (10 mCi/mL) and Wheat Germ Agglutinin (WGA) YSi SPA Scintillation Beads was purchased from Perkin-Elmer (Waltham, Mass.). Lipid kinase substrate, D-myo-Phosphatidylinositol 4,5-bisphosphate (PtdIns(4,5)P2)D (+)-sn-1,2-di-O-octanoylglyceryl, 3-O-phospho linked (PIP2), CAS 204858-53-7, was purchased from Echelon Biosciences (Salt Lake City, Utah). PI3Kδ (p110δ/p85α) Recombinant Human Protein was purchased from Eurofins (St. Charles, Mo.). ATP, MgCl2, DTT, EDTA, MOPS and CHAPS were purchased from Sigma-Aldrich (St. Louis, Mo.).
The kinase reaction was conducted in polystyrene 384-well Greiner Bio-one white plate from Thermo Fisher Scientific in a final volume of 25 μL. Inhibitors were first diluted serially in DMSO and added to the plate wells before the addition of other reaction components. The final concentration of DMSO in the assay was 2%. The PI3Kδ assay was carried out at room temperature in 20 mM MOPS, pH 6.7, 10 mM MgCl2, 5 mM DTT and CHAPS 0.03%. Reactions were initiated by the addition of ATP, the final reaction mixture consisted of 20 μM PIP2, 2 μM ATP, 0.5 μCi [γ-^33P] ATP, 3.4 nM PI3Kδ. […] After the plate sealing, plates were shaken overnight at room temperature and centrifuged at 1500 rpm for 10 min, the radioactivity of the product was determined by scintillation counting on Topcount (Perkin-Elmer). […]

Chain of PI3Kδ (p110δ/p85α) Recombinant Human Protein (O00329 whole entry): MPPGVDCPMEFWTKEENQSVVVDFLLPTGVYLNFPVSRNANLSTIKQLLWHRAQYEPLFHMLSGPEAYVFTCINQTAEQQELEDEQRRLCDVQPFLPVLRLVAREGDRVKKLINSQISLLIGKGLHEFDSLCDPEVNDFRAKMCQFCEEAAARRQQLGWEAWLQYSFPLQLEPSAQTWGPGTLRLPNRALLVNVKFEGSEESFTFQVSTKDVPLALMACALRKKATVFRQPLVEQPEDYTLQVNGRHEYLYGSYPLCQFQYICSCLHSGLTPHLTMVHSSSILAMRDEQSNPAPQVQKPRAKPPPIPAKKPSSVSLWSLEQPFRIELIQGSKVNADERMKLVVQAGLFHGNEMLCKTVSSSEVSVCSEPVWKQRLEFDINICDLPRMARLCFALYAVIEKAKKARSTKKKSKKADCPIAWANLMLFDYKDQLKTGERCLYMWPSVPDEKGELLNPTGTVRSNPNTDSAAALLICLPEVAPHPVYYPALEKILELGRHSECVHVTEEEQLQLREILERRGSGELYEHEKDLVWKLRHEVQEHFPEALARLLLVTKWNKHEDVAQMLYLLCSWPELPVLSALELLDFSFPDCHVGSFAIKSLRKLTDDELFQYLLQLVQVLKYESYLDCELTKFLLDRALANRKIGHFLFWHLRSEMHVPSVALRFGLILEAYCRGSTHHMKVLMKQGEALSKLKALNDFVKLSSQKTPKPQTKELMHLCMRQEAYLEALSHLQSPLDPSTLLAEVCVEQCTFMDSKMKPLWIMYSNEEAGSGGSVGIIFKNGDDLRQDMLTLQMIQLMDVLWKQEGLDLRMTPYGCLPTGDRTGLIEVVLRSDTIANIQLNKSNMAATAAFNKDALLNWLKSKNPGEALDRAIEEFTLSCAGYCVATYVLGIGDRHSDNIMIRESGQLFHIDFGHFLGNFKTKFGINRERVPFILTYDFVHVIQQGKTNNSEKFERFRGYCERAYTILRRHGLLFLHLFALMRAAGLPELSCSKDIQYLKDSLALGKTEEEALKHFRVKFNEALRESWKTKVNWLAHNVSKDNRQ
Chain of PI3Kδ (p110δ/p85α) Recombinant Human Protein (P27986 whole entry partner): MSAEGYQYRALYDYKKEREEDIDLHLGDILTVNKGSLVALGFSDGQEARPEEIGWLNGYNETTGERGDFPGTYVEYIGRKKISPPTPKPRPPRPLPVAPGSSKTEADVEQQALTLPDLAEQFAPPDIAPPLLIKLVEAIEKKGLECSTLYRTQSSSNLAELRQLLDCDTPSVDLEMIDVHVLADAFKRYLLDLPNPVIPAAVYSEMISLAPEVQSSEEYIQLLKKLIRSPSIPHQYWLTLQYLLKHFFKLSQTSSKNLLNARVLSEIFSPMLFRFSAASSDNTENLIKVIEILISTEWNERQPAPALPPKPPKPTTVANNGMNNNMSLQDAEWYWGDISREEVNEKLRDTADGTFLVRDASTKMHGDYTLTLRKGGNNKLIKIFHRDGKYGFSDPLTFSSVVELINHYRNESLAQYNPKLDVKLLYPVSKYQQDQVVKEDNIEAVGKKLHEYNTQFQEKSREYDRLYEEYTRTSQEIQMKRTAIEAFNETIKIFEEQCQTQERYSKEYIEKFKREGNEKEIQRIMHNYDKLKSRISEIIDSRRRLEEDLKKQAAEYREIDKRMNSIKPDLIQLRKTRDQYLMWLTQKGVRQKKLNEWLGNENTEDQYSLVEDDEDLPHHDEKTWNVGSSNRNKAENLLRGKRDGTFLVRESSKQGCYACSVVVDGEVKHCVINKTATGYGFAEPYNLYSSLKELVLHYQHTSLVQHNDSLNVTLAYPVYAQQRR

SMILES | IC50
CCS(=O)(=O)Nc1cncc(-c2ccc3nc(-c4nc5ccccc5[nH]4)oc3c2)c1 [Example 18, N-(5-(2-(1H-Benzo[d]imidazol-2-yl)benzo[d]oxazol-6-yl)pyridin-3-yl)ethanesulfonamide] | < 1 µM

system: Phosphorylated Ribosomal Protein S6 (RPS6) in THP-1 cells; assay: THP-1 RPS6 ELISA Assay; assay type: cell-based; conditions: Homo sapiens, 2 hours with compound, 10 nM MCP-1 for 15 minutes, read-out: THP p-RPS6 ELISA IC50
Method: To measure the Phosphorylated Ribosomal Protein S6 (RPS6) in cell lysates, THP-1 cells (Human Acute Monocytic Leukemia) are purchased from ATCC (Manassas, Va.) and maintained in RPMI with 10% FBS (Gibco/Life Technologies, Carlsbad, Calif.). For the assay, THP-1 cells are serum starved overnight in RPMI, then plated in RPMI (2×10^5 cells/well in 90 μL) into 96-well flat-bottom tissue culture treated plates (Corning, Corning, N.Y.), in the presence or absence of a concentration range of test compounds. Covered plates are incubated for 2 hours at 37° C., 5% CO2 then treated with or without 10 nM MCP-1 (MYBioSource, San Diego, Calif.) for 15 minutes at 37° C., 5% CO2. Plates are centrifuged at 1600 RPM and supernatants are removed. Cells are lysed in Lysis Buffer (Cell Signaling, Danvers, Mass.) with Protease Inhibitor (Calbiochem/EMD, Germany), PMSF (Sigma, St. Louis, Mo.), HALTS (Thermo Fisher, Rockford, Ill.) for 30 min on wet ice. Cell lysates are frozen at −80° C. before testing. The lysates are tested in the Human/Mouse/Rat Phospho-RPS6 ELISA (R&D Systems, Inc. Minn, Minn.). The plate is measured using a microplate reader (SpectraMax M5—Molecular Devices, LLC Sunnyvale, Calif.) set to 450 nm with a wavelength correction of 540. IC50 determination is performed by fitting the curve of inhibitor percent inhibition versus the log of the inhibitor concentration using the GraphPad Prism 5.0 software.

SMILES | IC50
CCS(=O)(=O)Nc1cncc(-c2ccc3nc(-c4nc5ccccc5[nH]4)oc3c2)c1 [Example 18, N-(5-(2-(1H-Benzo[d]imidazol-2-yl)benzo[d]oxazol-6-yl)pyridin-3-yl)ethanesulfonamide] | ≥ 5 µM
CCS(=O)(=O)Nc1cc(-c2ccc3nc(-c4nc(C)c(C)[nH]4)oc3c2)cnc1OC [Example 65, N-(5-(2-(4,5-Dimethyl-1H-imidazol-2-yl)benzo[d]oxazol-6-yl)-2-methoxypyridin-3-yl)ethanesulfonamide bis(trifluoroacetate)] | < 1 µM
Cc1nc(-c2nc3ccc(-c4cncc(C(O)C(F)(F)F)c4)cc3o2)[nH]c1C (stereo not drawn) [Example 67, 1-(5-(2-(4,5-Dimethyl-1H-imidazol-2-yl)benzo[d]oxazol-6-yl)pyridin-3-yl)-2,2,2-trifluoroethanol bis(trifluoroacetate)] | < 1 µM
O=S(=O)(CC(F)(F)F)Nc1cc(-c2ccc3nc(-c4nc5ccccc5[nH]4)oc3c2)cnc1F [Example 75, N-(5-(2-(1H-Benzo[d]imidazol-2-yl)benzo[d]oxazol-6-yl)-2-fluoropyridin-3-yl)-2,2,2-trifluoroethanesulfonamide bis(trifluoroacetate)] | < 1 µM
O=S(=O)(CC(F)(F)F)Nc1cncc(-c2ccc3nc(-c4nc5ccccc5[nH]4)oc3c2)c1 [Example 77, N-(5-(2-(1H-Benzo[d]imidazol-2-yl)benzo[d]oxazol-6-yl)pyridin-3-yl)-2,2,2-trifluoroethanesulfonamide bis(trifluoroacetate)] | < 1 µM
CCS(=O)(=O)Nc1cc(-c2ccc3nc(-c4nc5ccccc5[nH]4)oc3c2)cnc1OC [Example 79, N-(5-(2-(1H-Benzo[d]imidazol-2-yl)benzo[d]oxazol-6-yl)-2-methoxypyridin-3-yl)ethanesulfonamide bis(trifluoroacetate)] | < 1 µM
CCS(=O)(=O)Nc1cc(-c2ccc3nc(-c4nc5ccccc5[nH]4)oc3c2)cc(F)c1OC [Example 80, N-(5-(2-(1H-Benzo[d]imidazol-2-yl)benzo[d]oxazol-6-yl)-3-fluoro-2-methoxyphenyl)ethanesulfonamide bis(trifluoroacetate)] | ≥ 5 µM

More lines, now with the values ahead:

IC50 | SMILES
≥ 5 µM | CCCc1nc(-c2nc3ccc(-c4cncc(NS(=O)(=O)CC)c4)cc3o2)[nH]c1C [Example 64, N-(5-(2-(5-Methyl-4-propyl-1H-imidazol-2-yl)benzo[d]oxazol-6-yl)pyridin-3-yl)ethanesulfonamide bis(trifluoroacetate)]
< 5 µM | CCS(=O)(=O)Nc1cc(-c2ccc3nc(-c4nc5c([nH]4)CCCC5)oc3c2)cnc1OC [Example 66, N-(2-Methoxy-5-(2-(4,5,6,7-tetrahydro-1H-benzo[d]imidazol-2-yl)benzo[d]oxazol-6-yl)pyridin-3-yl)ethanesulfonamide]
< 5 µM | OC(c1cncc(-c2ccc3nc(-c4nc5c([nH]4)CCCC5)oc3c2)c1)C(F)(F)F (stereo not drawn) [Example 68, 2,2,2-Trifluoro-1-(5-(2-(4,5,6,7-tetrahydro-1H-benzo[d]imidazol-2-yl)benzo[d]oxazol-6-yl)pyridin-3-yl)ethanol]
≥ 5 µM | COc1cc(-c2ccc3nc(-c4nc5ccccc5[nH]4)oc3c2)cnc1F [Example 69, 2-(1H-Benzo[d]imidazol-2-yl)-6-(6-fluoro-5-methoxypyridin-3-yl)benzo[d]oxazole bis(trifluoroacetate)]
≥ 5 µM | CP(C)(=O)c1cncc(-c2ccc3nc(-c4nc5ccccc5[nH]4)oc3c2)c1 [Example 72, 2-(1H-Benzo[d]imidazol-2-yl)-6-(5-(dimethylphosphoryl)pyridin-3-yl)benzo[d]oxazole bis(trifluoroacetate)]
≥ 5 µM | OC(c1cncc(-c2ccc3nc(-c4nc5ccccc5[nH]4)oc3c2)c1)C(F)(F)F (stereo not drawn) [Example 74, 1-(5-(2-(1H-Benzo[d]imidazol-2-yl)benzo[d]oxazol-6-yl)pyridin-3-yl)-2,2,2-trifluoroethanol bis(trifluoroacetate)]
< 1 µM | Cc1ncc(-c2ccc3nc(-c4nc5ccccc5[nH]4)oc3c2)cc1NS(=O)(=O)CC(F)(F)F [Example 76, N-(5-(2-(1H-Benzo[d]imidazol-2-yl)benzo[d]oxazol-6-yl)-2-methylpyridin-3-yl)-2,2,2-trifluoroethanesulfonamide bis(trifluoroacetate)]
